Experimental findings from patent publication US8778966B2, “Quinolinone derivatives as PARP and tank inhibitors” (Janssen Pharmaceutica, NV, priority 2007, dated 2014) are described below.

The structures appear in SMILES notation.

In the assay the target is T1, TANK-2 enzyme (Homo sapiens, UniProt Q9H2K2).
T1 construct: made in house
T1 sequence (Q9H2K2 1-1166): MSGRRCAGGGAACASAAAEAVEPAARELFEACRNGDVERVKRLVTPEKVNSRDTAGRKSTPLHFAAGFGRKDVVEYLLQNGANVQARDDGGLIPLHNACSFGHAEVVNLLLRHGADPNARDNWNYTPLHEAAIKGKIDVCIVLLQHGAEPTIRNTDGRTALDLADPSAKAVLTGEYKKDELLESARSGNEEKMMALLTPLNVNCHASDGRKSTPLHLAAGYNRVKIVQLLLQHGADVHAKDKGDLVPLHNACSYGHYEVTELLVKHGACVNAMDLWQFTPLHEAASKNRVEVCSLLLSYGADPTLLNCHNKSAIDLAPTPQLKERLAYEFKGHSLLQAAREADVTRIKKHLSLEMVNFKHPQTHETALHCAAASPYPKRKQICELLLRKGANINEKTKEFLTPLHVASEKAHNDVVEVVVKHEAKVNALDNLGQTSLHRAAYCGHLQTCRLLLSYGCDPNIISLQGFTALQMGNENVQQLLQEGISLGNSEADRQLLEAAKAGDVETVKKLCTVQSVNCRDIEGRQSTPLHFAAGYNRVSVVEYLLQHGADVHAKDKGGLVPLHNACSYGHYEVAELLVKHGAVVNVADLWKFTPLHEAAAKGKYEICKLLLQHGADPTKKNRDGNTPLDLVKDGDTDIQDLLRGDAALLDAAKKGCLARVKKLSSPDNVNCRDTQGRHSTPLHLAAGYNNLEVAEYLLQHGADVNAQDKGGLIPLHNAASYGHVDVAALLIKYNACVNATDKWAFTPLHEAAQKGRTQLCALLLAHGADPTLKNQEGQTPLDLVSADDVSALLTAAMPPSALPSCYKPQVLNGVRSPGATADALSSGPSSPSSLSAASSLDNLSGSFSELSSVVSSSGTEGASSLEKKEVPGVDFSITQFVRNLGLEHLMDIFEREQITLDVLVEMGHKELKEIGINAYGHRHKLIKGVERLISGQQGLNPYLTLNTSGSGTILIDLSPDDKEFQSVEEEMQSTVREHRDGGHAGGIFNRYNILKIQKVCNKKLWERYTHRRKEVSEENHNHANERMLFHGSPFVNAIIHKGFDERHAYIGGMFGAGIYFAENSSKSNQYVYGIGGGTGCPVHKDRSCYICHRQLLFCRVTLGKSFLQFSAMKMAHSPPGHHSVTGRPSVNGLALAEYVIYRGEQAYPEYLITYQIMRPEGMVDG
Put plainly: In vitro Scintillation Proximity Assay (SPA) for TANK-2 inhibitory activity. Type of assay: biochemical. The note with it: read-out: in vitro SPA assay TANK-2 pIC50 (converted). The method in brief:
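TANK-2 (8 μg/ml final) auto-poly(ADP-ribosyl)ation with [3H]-NAD+/NAD donor was run in Ni flash plates in Tris/HCl pH 7.4 buffer with DTT and MgCl2, 120 min at room temperature, then stopped with excess NAD and scintillation-counted. Blank-corrected cpm was expressed as % of enzyme control, and IC50 was linearly interpolated and reported as pIC50.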
As for `CCc1cc2ccc(C(C)(C#N)Cc3nc4ccccc4n3C)cc2[nH]c1=O` (stereo not drawn) [Compound 338], the IC50 is 501 nM.
Turning to `CCc1cc2ccc(C(C)(C#N)Cc3cccc(C)n3)cc2[nH]c1=O` (stereo not drawn) [Compound 343], the IC50 was 398 nM.
As for `CCc1cc2ccc(C(C)(C#N)Cc3cccc(Br)n3)cc2[nH]c1=O` (stereo not drawn) [Compound 344], the IC50 is 316 nM.
The result for `CCc1cc2ccc(C(C)(C#N)Cc3cccc(CO)n3)cc2[nH]c1=O` (stereo not drawn) [Compound 345] reads 501 nM.
With `CCc1cc2ccc(C(C)(C#N)Cc3ccc(OC)nc3)cc2[nH]c1=O` (stereo not drawn) [Compound 352] the figure was 631 nM; with `CCc1cc2ccc(C(C)(C#N)Cc3cccc(OC)n3)cc2[nH]c1=O` (stereo not drawn) [Compound 353], 200 nM.
With `CCc1cc2ccc(C(C)(C#N)Cc3cnc(OC)nc3Cl)cc2[nH]c1=O` (stereo not drawn) [Compound 356] the figure was 79.4 nM; with `CCc1cc2ccc(C(C)(C#N)Cc3cnc(OC)nc3OC)cc2[nH]c1=O` (stereo not drawn) [Compound 357], 79.4 nM.
Consider `CCc1cc2ccc(C(C)(C#N)Cc3cc(OC)nc(OC)n3)cc2[nH]c1=O` (stereo not drawn) [Compound 358], for which the IC50 was 100 nM.
Take `CCc1cc2ccc(C(C)(C#N)Cc3nc(Cl)cc(N(C)C)n3)cc2[nH]c1=O` (stereo not drawn) [Compound 359]: the IC50 is 100 nM.
Turning to `CCc1cc2ccc(C(C)(C#N)Cc3nccc(OC)n3)cc2[nH]c1=O` (stereo not drawn) [Compound 360], the IC50 is 126 nM.
As to `CCc1cc2ccc(C(C)(C#N)Cc3cc(OCCOC)nc(C)n3)cc2[nH]c1=O` (stereo not drawn) [Compound 363], the IC50 was 158 nM.
Take `CCc1cc2ccc(C(C)(C#N)Cc3cc(N(C)C)nc(Cl)n3)cc2[nH]c1=O` (stereo not drawn) [Compound 364]: the IC50 is 100 nM.
Take `CCc1cc2ccc(C(C)(C#N)Cc3cc(OC)nc(C)n3)cc2[nH]c1=O` (stereo not drawn) [Compound 366]: the IC50 is 158 nM.
With `CCc1cc2ccc(C(C)(C#N)Cc3cc(OCCOC)nc(Cl)n3)cc2[nH]c1=O` (stereo not drawn) [Compound 367] the figure was 158 nM; with `CCc1cc2ccc(C(C)(C#N)Cc3nc(C)cc(C)n3)cc2[nH]c1=O` (stereo not drawn) [Compound 368], 158 nM.
In the case of `CCc1cc2ccc(C(C)(C#N)Cc3nccc(OCCOC)n3)cc2[nH]c1=O` (stereo not drawn) [Compound 369], the IC50 is 631 nM.
Take `CCc1cc2ccc(C(C)(C#N)Cc3nc(Cl)cc(OCCOC)n3)cc2[nH]c1=O` (stereo not drawn) [Compound 370]: the IC50 is 251 nM.
For the compound `CCc1cc2ccc(C(C)(C#N)Cc3cc(Cl)nc(Cl)c3)cc2[nH]c1=O` (stereo not drawn) [Compound 372], the IC50 was 126 nM.
Regarding `CCc1cc2ccc(C(C)(C#N)Cc3cc(OC)ccn3)cc2[nH]c1=O` (stereo not drawn) [Compound 373], the IC50 was 501 nM.
As to `CCc1cc2ccc(C(C)(C#N)CC3CCc4ccccc4O3)cc2[nH]c1=O` (stereo not drawn) [Compound 399], the IC50 was 100 nM.
